According to patent US20230139171A1 (SITA Information Networking Computing UK Limited, priority 2019, published 2023):

Assays:
Type in all cases: cell-based
human TLR8 = molecular target: T1, human TLR8 (Homo sapiens, UniProt Q9NR97); assay: TLR8 inhibition reporter assay (HEK-Blue cells, SEAP reporter, R848 stimulation); conditions: HEK-Blue cells overexpressing human TLR8, SEAP reporter, R848 15.9 μM; read-out: TLR8 IC50
T1 construct: host or cells: HEK-Blue cells
T1 sequence (Q9NR97 27-1041): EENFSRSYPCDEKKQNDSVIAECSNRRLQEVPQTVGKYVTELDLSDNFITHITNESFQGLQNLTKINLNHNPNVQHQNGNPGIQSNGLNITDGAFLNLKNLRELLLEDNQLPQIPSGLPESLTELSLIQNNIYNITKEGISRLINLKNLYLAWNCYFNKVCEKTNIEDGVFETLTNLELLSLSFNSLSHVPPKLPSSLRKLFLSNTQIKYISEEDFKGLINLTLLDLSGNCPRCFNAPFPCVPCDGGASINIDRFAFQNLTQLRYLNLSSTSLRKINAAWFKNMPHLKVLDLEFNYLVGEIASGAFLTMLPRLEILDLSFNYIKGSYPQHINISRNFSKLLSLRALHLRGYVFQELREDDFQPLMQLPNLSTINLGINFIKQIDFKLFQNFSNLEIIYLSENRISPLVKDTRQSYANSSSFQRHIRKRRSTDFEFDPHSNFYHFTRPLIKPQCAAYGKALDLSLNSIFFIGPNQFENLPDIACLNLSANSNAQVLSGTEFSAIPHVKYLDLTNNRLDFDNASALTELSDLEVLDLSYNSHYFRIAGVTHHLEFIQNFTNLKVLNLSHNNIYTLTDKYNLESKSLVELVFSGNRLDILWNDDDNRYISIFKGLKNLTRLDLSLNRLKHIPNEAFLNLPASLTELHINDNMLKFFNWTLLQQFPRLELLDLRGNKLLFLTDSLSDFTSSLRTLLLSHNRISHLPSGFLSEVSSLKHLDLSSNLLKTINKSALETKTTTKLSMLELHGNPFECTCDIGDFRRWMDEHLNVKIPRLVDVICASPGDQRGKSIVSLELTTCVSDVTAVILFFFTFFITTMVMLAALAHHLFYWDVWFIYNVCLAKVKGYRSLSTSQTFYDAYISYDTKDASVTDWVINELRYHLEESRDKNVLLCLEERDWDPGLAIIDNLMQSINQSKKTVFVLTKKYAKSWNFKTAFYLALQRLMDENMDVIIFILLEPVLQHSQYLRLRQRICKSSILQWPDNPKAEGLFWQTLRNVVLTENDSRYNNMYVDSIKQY
Procedure, shortened: (§1)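 HEK-Blue cells overexpressing human TLR7, TLR8 or TLR9 carry a SEAP reporter driven by NF-κB/AP-1 sites. Compounds (0.05 nM–50 μM) were preincubated 30 min at room temperature, then cells were stimulated with gardiquimod 7.5 μM (TLR7), R848 15.9 μM (TLR8) or ODN2006 5 nM (TLR9) for 22 h at 37 °C.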

human TLR7 = molecular target: T2, human TLR7 (Homo sapiens, UniProt Q9NYK1); assay: TLR7 inhibition reporter assay (HEK-Blue cells, SEAP reporter, gardiquimod stimulation); conditions: HEK-Blue cells overexpressing human TLR7, SEAP reporter, gardiquimod 7.5 μM; read-out: TLR7 IC50
T2 construct: host or cells: HEK-Blue cells
T2 sequence (Q9NYK1 27-1049): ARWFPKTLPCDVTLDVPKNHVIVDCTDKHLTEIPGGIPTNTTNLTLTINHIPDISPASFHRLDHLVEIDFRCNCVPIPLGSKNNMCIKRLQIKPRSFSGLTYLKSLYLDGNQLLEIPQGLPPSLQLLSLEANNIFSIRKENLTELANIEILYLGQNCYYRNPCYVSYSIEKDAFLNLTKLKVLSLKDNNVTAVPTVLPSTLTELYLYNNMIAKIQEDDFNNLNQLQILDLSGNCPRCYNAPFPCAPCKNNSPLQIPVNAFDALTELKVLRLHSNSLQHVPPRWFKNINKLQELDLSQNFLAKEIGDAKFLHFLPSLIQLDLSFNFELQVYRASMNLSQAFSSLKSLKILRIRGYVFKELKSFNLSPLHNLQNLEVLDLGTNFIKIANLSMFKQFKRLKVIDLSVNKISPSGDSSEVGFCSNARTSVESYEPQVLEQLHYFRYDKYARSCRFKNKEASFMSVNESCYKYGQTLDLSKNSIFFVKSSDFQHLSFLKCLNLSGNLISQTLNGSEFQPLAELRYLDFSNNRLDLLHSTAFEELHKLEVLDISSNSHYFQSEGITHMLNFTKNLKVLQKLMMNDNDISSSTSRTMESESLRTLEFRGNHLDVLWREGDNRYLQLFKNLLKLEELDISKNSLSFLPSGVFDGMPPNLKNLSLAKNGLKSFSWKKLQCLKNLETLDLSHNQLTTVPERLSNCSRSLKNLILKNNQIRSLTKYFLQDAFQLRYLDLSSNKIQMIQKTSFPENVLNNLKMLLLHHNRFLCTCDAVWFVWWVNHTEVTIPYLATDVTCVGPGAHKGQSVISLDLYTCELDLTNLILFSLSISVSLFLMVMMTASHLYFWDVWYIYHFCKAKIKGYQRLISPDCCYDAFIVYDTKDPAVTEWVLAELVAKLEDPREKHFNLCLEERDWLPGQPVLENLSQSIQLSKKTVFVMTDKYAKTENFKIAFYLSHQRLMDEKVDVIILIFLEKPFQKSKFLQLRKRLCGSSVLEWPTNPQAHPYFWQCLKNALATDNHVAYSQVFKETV
Procedure, shortened: as §1

human TLR9 = molecular target: T3, human TLR9 (Homo sapiens, UniProt Q9NR96); assay: TLR9 inhibition reporter assay (HEK-Blue cells, SEAP reporter, ODN2006 stimulation); conditions: HEK-Blue cells overexpressing human TLR9, SEAP reporter, ODN2006 5 nM
T3 construct: host or cells: HEK-Blue cells
T3 sequence (Q9NR96 26-1032): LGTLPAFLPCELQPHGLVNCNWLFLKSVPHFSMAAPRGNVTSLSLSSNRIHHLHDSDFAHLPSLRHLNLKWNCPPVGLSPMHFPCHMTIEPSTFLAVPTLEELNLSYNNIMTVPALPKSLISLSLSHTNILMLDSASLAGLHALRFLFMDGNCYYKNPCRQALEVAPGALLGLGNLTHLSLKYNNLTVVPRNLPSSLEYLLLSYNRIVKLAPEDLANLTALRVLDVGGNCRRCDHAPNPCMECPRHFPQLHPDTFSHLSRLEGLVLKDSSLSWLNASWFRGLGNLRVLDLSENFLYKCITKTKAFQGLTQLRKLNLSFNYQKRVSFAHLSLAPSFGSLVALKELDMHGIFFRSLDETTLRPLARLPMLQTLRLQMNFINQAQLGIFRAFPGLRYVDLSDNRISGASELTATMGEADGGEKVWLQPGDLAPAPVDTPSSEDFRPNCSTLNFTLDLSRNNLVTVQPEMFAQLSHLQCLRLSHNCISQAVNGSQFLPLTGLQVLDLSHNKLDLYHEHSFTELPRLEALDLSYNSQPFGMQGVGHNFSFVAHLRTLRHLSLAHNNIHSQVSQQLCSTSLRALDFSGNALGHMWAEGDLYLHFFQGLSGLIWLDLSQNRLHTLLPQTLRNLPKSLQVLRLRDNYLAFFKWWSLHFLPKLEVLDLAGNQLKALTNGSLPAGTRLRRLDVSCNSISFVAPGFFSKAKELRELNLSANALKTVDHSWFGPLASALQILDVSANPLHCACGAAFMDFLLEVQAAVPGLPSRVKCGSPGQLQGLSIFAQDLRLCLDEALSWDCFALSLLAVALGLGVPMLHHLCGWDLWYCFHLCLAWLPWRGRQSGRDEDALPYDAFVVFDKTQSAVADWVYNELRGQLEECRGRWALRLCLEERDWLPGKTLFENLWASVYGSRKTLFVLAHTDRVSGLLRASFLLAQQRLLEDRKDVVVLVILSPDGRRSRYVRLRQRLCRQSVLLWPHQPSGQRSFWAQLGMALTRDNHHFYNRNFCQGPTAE
Procedure, shortened: as §1

Structure (SMILES)	IC50 (human TLR8) [µM]	IC50 (human TLR7) [µM]	IC50 (human TLR9) [µM]
Cc1c(-c2[nH]c3sc(N4C[C@@H](C)N(C5COC5)C[C@@H]4C)nc3c2C(C)C)cn2ncnc2c1C [Example 328, 2-((2S,5R)-2,5-dimethyl-4-(oxetan-3-yl)piperazin-1-yl)-5-(7,8-dimethyl-[1,2,4]triazolo[1,5-a]pyridin-6-yl)-6-isopropyl-4H-pyrrolo[3,2-d]thiazole]	0.0128	0.0129	18.8
Cc1c(-c2[nH]c3sc(N4C[C@@H](C)N(C5CCOCC5)C[C@@H]4C)nc3c2C(C)C)cn2ncnc2c1C [Example 329, 2-((2S,5R)-2,5-dimethyl-4-(tetrahydro-2H-pyran-4-yl)piperazin-1-yl)-5-(7,8-dimethyl-[1,2,4]triazolo[1,5-a]pyridin-6-yl)-6-isopropyl-4H-pyrrolo[3,2-d]thiazole]	0.0603	0.414	14.7
Cc1c(-c2[nH]c3sc(N4C[C@@H](C)N(C(C)C)C[C@@H]4C)nc3c2C(C)C)cn2ncnc2c1C [Example 330, 5-(7,8-dimethyl-[1,2,4]triazolo[1,5-a]pyridin-6-yl)-6-isopropyl-2-((2S,5R)-4-isopropyl-2,5-dimethylpiperazin-1-yl)-4H-pyrrolo[3,2-d] thiazole]	0.0015	0.00834	11.4
CCN1C[C@H](C)N(c2nc3c(C(C)C)c(-c4cn5ncnc5c(C)c4C)[nH]c3s2)C[C@H]1C [Example 331, 5-(7,8-dimethyl-[1,2,4]triazolo[1,5-a]pyridin-6-yl)-2-((2S,5R)-4-ethyl-2,5-dimethylpiperazin-1-yl)-6-isopropyl-4H-pyrrolo[3,2-d]thiazole]	0.00049	0.00429	6.31
Cc1c(-c2[nH]c3sc(N4C[C@@H](C)N(CC5CC5)C[C@@H]4C)nc3c2C(C)C)cn2ncnc2c1C [Example 332, 2-((2S,5R)-4-(cyclopropylmethyl)-2,5-dimethylpiperazin-1-yl)-5-(7,8-dimethyl-[1,2,4]triazolo[1,5-a]pyridin-6-yl)-6-isopropyl-4H-pyrrolo[3,2-d]thiazole]	0.00191	0.0169	10.2
Cc1c(-c2[nH]c3sc(N4C[C@@H](C)N(C5CCC5)C[C@@H]4C)nc3c2C(C)C)cn2ncnc2c1C [Example 333, 2-((2S,5R)-4-cyclobutyl-2,5-dimethylpiperazin-1-yl)-5-(7,8-dimethyl-[1,2,4]triazolo[1,5-a]pyridin-6-yl)-6-isopropyl-4H-pyrrolo[3,2-d]thiazole]	0.00219	0.0349	37.4
Cc1c(-c2[nH]c3sc(N4C[C@@H](C)N(C(C)C)C[C@@H]4C)nc3c2C(C)C)cn2ncnc2c1C [Example 334, 5-(7,8-dimethyl-[1,2,4]triazolo[1,5-a]pyridin-6-yl)-6-isopropyl-2-((2S,5R)-4-isopropyl-2,5-dimethylpiperazin-1-yl)-4H-pyrrolo[3,2-d]thiazole]	0.00319	0.0136	4.83
CNC(=O)CN1C[C@H](C)N(c2nc3c(C(C)C)c(-c4cn5ncnc5c(C)c4C)[nH]c3s2)C[C@H]1C [Example 336, 2-((2R,5S)-4-(5-(7,8-dimethyl-[1,2,4]triazolo[1,5-a]pyridin-6-yl)-6-isopropyl-4H-pyrrolo[3,2-d]thiazol-2-yl)-2,5-dimethylpiperazin-1-yl)-N-methylacetamide]	0.0397	0.0135	38.1
Cc1c(-c2[nH]c3sc(N4C[C@@H](C)N(CCS(C)(=O)=O)C[C@@H]4C)nc3c2C(C)C)cn2ncnc2c1C [Example 337, 2-((2S,5R)-2,5-dimethyl-4-(2-(methylsulfonyl)ethyl)piperazin-1-yl)-5-(7,8-dimethyl-[1,2,4]triazolo[1,5-a]pyridin-6-yl)-6-isopropyl-4H-pyrrolo[3,2-d]thiazole]	0.00761	0.00827	42.4
Cc1c(-c2[nH]c3sc(N4C[C@@H](C)N(CC(N)=O)C[C@@H]4C)nc3c2C(C)C)cn2ncnc2c1C [Example 338, 2-((2R,5S)-4-(5-(7,8-dimethyl-[1,2,4]triazolo[1,5-a]pyridin-6-yl)-6-isopropyl-4H-pyrrolo[3,2-d]thiazol-2-yl)-2,5-dimethylpiperazin-1-yl)acetamide]	0.0311	0.0101	45.6
Cc1c(-c2[nH]c3sc(N4C[C@@H](C)N(CC(C)(C)O)C[C@@H]4C)nc3c2C(C)C)cn2ncnc2c1C [Example 339, 1-((2R,5S)-4-(5-(7,8-dimethyl-[1,2,4]triazolo[1,5-a]pyridin-6-yl)-6-isopropyl-4H-pyrrolo[3,2-d]thiazol-2-yl)-2,5-dimethylpiperazin-1-yl)-2-methylpropan-2-ol]	0.00386	0.0199	36.6
